Patent US20240325378A1, “PERGOLIDE TREATMENT OF OCULAR CHEMICAL INJURY” (University of Oregon, priority 2023, published 2024)

B1: NGF: Recombinant mouse NGF (R&D Systems) dissolved in 1× PBS, 100 μg/ml eye drops; positive control (protein, UniProt P01139 122-241, looked up)
Beta-nerve growth factor: SSTHPVFHMGEFSVCDSVSVWVGDKTTATDIKGKEVTVLAEVNINNSVFRQYFFETKCRASNPVESGCRGIDSKHWNSYCTTTHTFVKALTTDEKQAAWRFIRIDTACVCVLSRKATRRG

Columns and labels:
[1] = system: C57BL/6J mice with alkali corneal injury; assay: Corneal haze grading (Roper-Hall classification) after corneal alkali injury; assay type: in vivo, mouse; settings: 3 weeks post injury; medium dose 300 μg/ml; grade 0-4; naïve group 3.3±0.8
Description: (§1) Mice were separated into 7 treatment groups with 10 mice per group (5 male, 5 female); high dose pergolide (600 μg/ml), medium dose pergolide (300 μg/ml), low dose pergolide (50 μg/ml), vehicle (solution only), NGF (100 μg/ml), naïve (injury and no treatment), and normal (no injury and no treatment). Preparation of pergolide and vehicle groups were done with Marinosolv® (Marinomed, Hovengasse, Korneuburg, AT) as described in (Siegl 2019 and Zhang 2020). Recombinant mouse NGF (R&D Systems, Minneapolis, MN, US) was prepared by dissolution in 1× phosphate-buffered saline (PBS). Both solutions were stored at 4 C according to the manufacturer's guidelines.
Mice were confirmed to have normal corneas prior to starting the study. Alkali corneal injury was done on one eye of each mouse for all groups excluding the normal group, in accordance with an established mouse model (Cho J 2019). Alkali-based injury was chosen as it is one of the most common chemical injuries to the eye (Dua 2020). […] A 2 mm diameter filter paper disc was soaked in sodium hydroxide (0.75 M) then applied centrally on the cornea for 10 seconds. The disc was then removed and the ocular surface immediately irrigated with 10 ml of balanced sodium salts. […] Mice were placed on a water heating pad, monitored until fully awake, then returned to their cage. […]

[2] = system: C57BL/6J mice with alkali corneal injury; assay: Limbal nerve density (β-tubulin III stained flat-mounts); assay type: in vivo, mouse; settings: 3 weeks post injury, normal control 0.37±0.09
Description: as §1
Mice were confirmed to have normal corneas prior to starting the study. Alkali corneal injury was done on one eye of each mouse for all groups excluding the normal group, in accordance with an established mouse model (Cho J 2019). Alkali-based injury was chosen as it is one of the most common chemical injuries to the eye (Dua 2020). […] A 2 mm diameter filter paper disc was soaked in sodium hydroxide (0.75 M) then applied centrally on the cornea for 10 seconds. The disc was then removed and the ocular surface immediately irrigated with 10 ml of balanced sodium salts. The corneal surface was then lightly rubbed with the smooth side of forceps and irrigated in the same manner. None of the mice had eyelid or conjunctiva involvement of the injury. Erythromycin ointment (Perrigo, Dublin, IE) was then applied to the exterior of both eyes. Mice were placed on a water heating pad, monitored until fully awake, then returned to their cage. […]
(§2) Flat-mounts of mouse corneas were prepared and corneal nerve density was analyzed as previously described (N=6; 3 male, 3 female) (Zhang 2020) (FIG. 3A). […]
(§3) EVOS fluorescence microscope (Life Technologies, Carlsbad, CA, US) was used to create reconstructed whole-mount images and take images at the basal epithelial level in the central area of the injury. […]

[3] = Change in mouse weight, baseline to 3 weeks post-injury; assay type: in vivo; settings: medium dose 300 μg/ml group
Description: (§4) Change in mouse weight was compared from baseline to 3 weeks post-injury, and weight in the pergolide groups was compared to the non-pergolide groups (N=10; 5 male, 5 female). Following euthanasia, the heart and eyes were removed from the high dose pergolide and vehicle groups and histopathology was assessed using previously described protocols.

[4] = system: C57BL/6J mice with alkali corneal injury; assay: Central corneal nerve density (β-tubulin III stained flat-mounts); assay type: in vivo, mouse; settings: 3 weeks post injury; low dose 50 μg/ml; normal control 0.43±0.05
Description: as §1
Mice were confirmed to have normal corneas prior to starting the study. Alkali corneal injury was done on one eye of each mouse for all groups excluding the normal group, in accordance with an established mouse model (Cho J 2019). […] Mice were placed on a water heating pad, monitored until fully awake, then returned to their cage. […]
as §2, §3

[5] = system: C57BL/6J mice; assay: Histopathology of heart, retina, liver and kidney after topical treatment; assay type: in vivo, mouse; settings: high, medium, and low dose topical eye drops for 3 weeks
Description: as §4
In brief, after excision, hearts, livers, and kidneys were fixed in formalin for 24 hours then embedded in paraffin and cut in the coronal and transverse planes (N=4; 2 male, 2 female) (Droogmans 2007 & 2009). Eyes were fixed in Davidson's solution for 24 hours then placed in 70% ethanol and processed prior then embedded in paraffin and cut in the sagittal plane (N=4; 2 male, 2 female) (Chidlow 2011). Hematoxylin and eosin were used to stain the slides (Cardiff 2014), then the EVOS fluorescence microscope was used to capture images.

[6] = system: C57BL/6J mice with alkali corneal injury; assay: Wiping test (ocular pain behavior) after corneal alkali injury; assay type: in vivo, mouse; settings: females; for wiping (eye wipes, week minus baseline): week 2 post-injury, heightened vs week 1
Description: Seventy (35 male, 35 female) C57BL/6J mice (The Jackson Laboratory, Maine, US) were utilized (FIG. 1A). Mice were kept in a 12 hour light/12 hour dark cycle in groups of 5 with food and water ad libitum. Differences between males and females were assessed.
as §1
Mice were confirmed to have normal corneas prior to starting the study. Alkali corneal injury was done on one eye of each mouse for all groups excluding the normal group, in accordance with an established mouse model (Cho J 2019). Alkali-based injury was chosen as it is one of the most common chemical injuries to the eye (Dua 2020). […] A 2 mm diameter filter paper disc was soaked in sodium hydroxide (0.75 M) then applied centrally on the cornea for 10 seconds. The disc was then removed and the ocular surface immediately irrigated with 10 ml of balanced sodium salts. The corneal surface was then lightly rubbed with the smooth side of forceps and irrigated in the same manner. None of the mice had eyelid or conjunctiva involvement of the injury. Erythromycin ointment (Perrigo, Dublin, IE) was then applied to the exterior of both eyes. Mice were placed on a water heating pad, monitored until fully awake, then returned to their cage.
All groups except the no treatment groups received their respective eye drops (10 μl per eye drop) three times daily (5 out of 7 days each week) in the injured eye for 3 weeks following injury. Mice were held for 10 seconds with the eye drop on their eye before being returned to their cage. Mice were sacrificed by cervical dislocation after week 3.
Wiping test was chosen to assess ocular pain behavior and was done once weekly (at the same time), in accordance with previously established protocols (N=10; 5 male, 5 female) (Tashiro et al. 2010, Cho J et al. 2019). Testing was performed in a clear open-top cylinder surrounded by 2 mirrors and a video recorder in front of the cylinder. Mice were habituated to the cylinder prior to the start of the study. The test consisted of applying 10 μl of sodium chloride (2 M) to the surface of the study cornea for 10 seconds, blotting excess away, then recording the mouse in the cylinder for 30 seconds. […] A different pipette tip was used for each mouse. Sudden movements and loud noises were avoided during testing so as to not distract the subjects. An eye wipe was defined as a purposeful wipe by the ipsilateral forelimb across the eye or resulting in eye closure. Cage changes were not done within 3 days of each test, and when cage changes occurred it happened for each group simultaneously. Eye wiping was assessed at baseline (3 days prior to injury) and on post-injury weeks 1, 2, and 3.

[7] = medium dose 300 μg/ml eye drops

Molecule | corneal haze grade [1] | limbal nerve density ([2]; high dose 600 μg/ml) | limbal nerve density ([2]; medium dose 300 μg/ml) | minor weight loss of one mouse, of initial body weight [3] | central corneal nerve density (proportion of area with β-tubulin III staining) [4] | retina, liver and kidney morphology [5] | heart histopathology ([5]; compared to the vehicle group) | wiping (eye wipes, week minus baseline) ([6]; high dose 600 μg/ml eye drops) [wipes] | wiping (eye wipes, week minus baseline) [6, 7] [wipes] | wiping at week 3 compared to week 2 ([6]; high dose 600 μg/ml eye drops) | wiping at week 3 compared to week 2 [6, 7] | limbal nerve density ([2]; 100 μg/ml) | wiping (eye wipes, week minus baseline) ([6]; 100 μg/ml eye drops) [wipes] | wiping at week 3 compared to week 2 ([6]; 100 μg/ml eye drops)
CCCN1C[C@H](CSC)C[C@@H]2c3cccc4[nH]cc(c34)C[C@H]21 [pergolide] | 2.2±1.1 | 0.35±0.11 | 0.34±0.08 | about 1% | 0.10±0.03 | did not show abnormal morphology | did not show presence of valvular fibrosis, glycosaminoglycans deposits/myxoid changes, chondroid metaplasia, or other abnormal pathology | 7.0±5.8 | 6.2±5.5 | decreased | decreased | – | – | –
B1 | – | – | – | – | – | – | – | – | – | – | – | 0.36±0.08 | 4.6±5.1 | decreased
